Laboratory results published in patent US20050004172A1, “Solid state forms of 5-(difluoro-methoxy)-2-((3,4-dimethoxy-2-pyridinyl)-methyl) sulfinyl]-1H-benzimidazole sodium aquo complexes” (Pliva-Istrazivacki Institut d.o.o., priority 2003, published 2005).

Assays:
[1] = Solid-state stability under normal storage conditions; assay type: physicochemical; settings: typically, but not limited to, temperatures of about 20° C. to about 30° C., relative humidity of about 30% to about 60%
[2] = Solid-state form conversion under crushing or compressing; assay type: physicochemical

SMILES | stability under normal storage conditions [1] | conversion into other known solid-state forms of pantoprazole sodium [2]
COc1ccnc(C[S+]([O-])c2nc3ccc(OC(F)F)cc3[nH]2)c1OC (centres unmarked) [Form A1, 5-(difluoromethoxy)-2-[[(3,4-dimethoxy-2-pyridinyl)methyl]sulfinyl]-1H-benzimidazole] | stable | does not convert
COc1ccnc(C[S+]([O-])c2nc3ccc(OC(F)F)cc3[nH]2)c1OC (centres unmarked) [Form A3, 5-(difluoromethoxy)-2-[[(3,4-dimethoxy-2-pyridinyl)methyl]sulfinyl]-1H-benzimidazole] | stable | does not convert
COc1ccnc(C[S+]([O-])c2nc3ccc(OC(F)F)cc3[nH]2)c1OC (centres unmarked) [Form A4, 5-(difluoromethoxy)-2-[[(3,4-dimethoxy-2-pyridinyl)methyl]sulfinyl]-1H-benzimidazole] | stable | does not convert
COc1ccnc(C[S+]([O-])c2nc3ccc(OC(F)F)cc3[nH]2)c1OC (centres unmarked) [Form A2, 5-(difluoromethoxy)-2-[[(3,4-dimethoxy-2-pyridinyl)methyl]sulfinyl]-1H-benzimidazole] | stable | does not convert
